Reference: the supplement of paper PMC8671470

Columns and labels:
Conditions in all cases: 72 h
[1] = test system: HL-60; experiment: cell viability (% survival relative to DMSO control); higher = less cytotoxic
In short: (§1)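 In 384-well plates, the full library was rescreened in duplicate on HL-60 cells in RPMI 1640 with 10% FBS, at 1–10,000 nM in five tenfold concentrations, for 72 h at 37 °C, 5% CO2. Each run also held DMSO or 100 nM of one of three metabolic inhibitors. Viability was measured by CellTiter-Glo and normalised to DMSO wells and to wells with proteasome inhibitor, present at 10 μM. Any area under the curve comes from four-parameter log-logistic fitting with drc and PharmacoGx.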

[2] = test system: HL-60; experiment: area under dose-response curve (viability, 1 nM-10 uM) (fraction (0-1)); higher = more sensitive
In short: as §1

[3] = test system: myeloid leukemia patient primary cells Pat.3; experiment: cell viability (% survival relative to DMSO control); higher = less cytotoxic
In short: (§2)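 Mononuclear cells from patients with AML or CML were thawed, purified on Ficoll and placed in RPMI 1640 with 10% FBS at 10,000 cells/well on 384-well plates. The plates came pre-printed with 70 compounds at five tenfold concentrations spanning 1–10,000 nM, in duplicate, and cells were exposed for 72 h. CellTiter-Glo gave viability, scaled between DMSO wells and wells with 10 μM proteasome inhibitor. Where reported, area under the curve was obtained from log-logistic fits with four parameters using the drc and PharmacoGx R packages.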

[4] = test system: myeloid leukemia patient primary cells Pat.13; experiment: as above
In short: as §2

[5] = test system: myeloid leukemia patient primary cells Pat.8; experiment: as above
In short: as §2

[6] = test system: myeloid leukemia patient primary cells Pat.5; experiment: as above
In short: as §2

[7] = test system: myeloid leukemia patient primary cells Pat.7; experiment: as above
In short: as §2

[8] = test system: myeloid leukemia patient primary cells Pat.9; experiment: as above
In short: as §2

[9] = test system: myeloid leukemia patient primary cells Pat.3; experiment: area under dose-response curve (viability, 1 nM-10 uM) (fraction (0-1)); higher = more sensitive
Procedure: (§3)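 AUC (0–1, higher = more sensitive) of the 5-point dose–response (1 nM–10 µM, 72 h, CellTiter-Glo) in primary AML/CML patient mononuclear cells. 0.030103 is the floor for inactive compounds.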

[10] = test system: myeloid leukemia patient primary cells Pat.4; experiment: as above
Procedure: as §3

[11] = test system: myeloid leukemia patient primary cells Pat.13; experiment: as above
Procedure: as §3

[12] = test system: myeloid leukemia patient primary cells Pat.5; experiment: as above
Procedure: as §3

[13] = test system: myeloid leukemia patient primary cells Pat.14; experiment: as above
Procedure: as §3

[14] = test system: myeloid leukemia patient primary cells Pat.2; experiment: as above
Procedure: as §3

[15] = test system: myeloid leukemia patient primary cells Pat.10; experiment: as above
Procedure: as §3

[16] = test system: myeloid leukemia patient primary cells Pat.12; experiment: as above
Procedure: as §3

[17] = test system: myeloid leukemia patient primary cells Pat.7; experiment: as above
Procedure: as §3

[18] = test system: myeloid leukemia patient primary cells Pat.9; experiment: as above
Procedure: as §3

[19] = test system: myeloid leukemia patient primary cells Pat.15; experiment: as above
Procedure: as §3

[20] = test system: myeloid leukemia patient primary cells Pat.8; experiment: as above
Procedure: as §3

[21] = test system: myeloid leukemia patient primary cells Pat.1; experiment: as above
Procedure: as §3

[22] = test system: myeloid leukemia patient primary cells Pat.6; experiment: as above
Procedure: as §3

[23] = test system: myeloid leukemia patient primary cells Pat.11; experiment: as above
Procedure: as §3

CCC(CC#N)OC(=O)N[C@@H](C)c1cccc(NC(=O)Nc2ccc(-c3cnco3)c(OC)c2)c1 (stereo in doubt) [AVN-944]
cell viability [%], [1]
Conditions | 0.001 µM | 0.01 µM | 0.1 µM | 1 µM | 10 µM
co-treatment: AZD3965 100 nM | 96.6 | 102 | 102 | 35.4 | 8.09
co-treatment: DMSO vehicle | 99.36 | 97.01 | 103 | 50 | 12.9
co-treatment: GSK2194069 100 nM | 99.2 | 105 | 100 | 53 | 12.3
co-treatment: pictilisib 100 nM | 102.95 | 98.5 | 93.8 | 48.9 | 9.49

Conditions | area under dose-response curve, co-treatment: AZD3965 100 nM | area under dose-response curve, co-treatment: DMSO vehicle | area under dose-response curve, co-treatment: GSK2194069 100 nM | area under dose-response curve, co-treatment: pictilisib 100 nM | cell viability, 1 nM [%] | cell viability, 10 nM [%] | cell viability, 100 nM [%] | cell viability, 1000 nM [%] | cell viability, 10000 nM [%]
[2] | 0.273 | 0.233 | 0.227 | 0.255 | – | – | – | – | –
[3] | – | – | – | – | > 100 | 80.4 | 51.2 | 29.3 | 20
[4] | – | – | – | – | 91.5 | 93.1 | 90.6 | 63.4 | 36.5
[5] | – | – | – | – | 82.5 | 92.3 | 86.4 | 68.7 | 58.1
[6] | – | – | – | – | 56.9 | 45.4 | 40.4 | 9.12 | 5.69
[7] | – | – | – | – | 98.1 | 91.5 | 25.3 | 17.6 | < 0
[8] | – | – | – | – | 74.9 | 72.1 | 50 | 15.9 | 1.99

Conditions | area under dose-response curve
[9] | 0.44
[10] | 0.162
[11] | 0.162
[12] | 0.641
[13] | 0.167
[14] | < 0.0301
[15] | 0.508
[16] | < 0.0301
[17] | 0.545
[18] | 0.438

Nc1ccn([C@@H]2O[C@H](CO)[C@@H](O)C2(F)F)c(=O)n1 [Gemcitabine]
cell viability [%], [1]
Conditions | 0.001 µM | 0.01 µM | 0.1 µM | 1 µM | 10 µM
co-treatment: AZD3965 100 nM | 101 | 82.7 | 5.92 | 4.29 | 3.15
co-treatment: DMSO vehicle | 99.76 | 85.6 | 7.57 | 6.18 | 3.121
co-treatment: GSK2194069 100 nM | 104 | 84.92 | 7.69 | 5.54 | 3.32
co-treatment: pictilisib 100 nM | 97.8 | 74.5 | 6.77 | 5.09 | 2.52

Conditions | area under dose-response curve, co-treatment: AZD3965 100 nM | area under dose-response curve, co-treatment: DMSO vehicle | area under dose-response curve, co-treatment: GSK2194069 100 nM | area under dose-response curve, co-treatment: pictilisib 100 nM | cell viability, 1 nM [%] | cell viability, 10 nM [%] | cell viability, 100 nM [%] | cell viability, 1000 nM [%] | cell viability, 10000 nM [%]
[2] | 0.648 | 0.631 | 0.634 | 0.663 | – | – | – | – | –
[3] | – | – | – | – | 61.9 | 22.1 | 25 | 7.9 | 4.31
[4] | – | – | – | – | 89.5 | 84.5 | 90.2 | 86.3 | 36.4
[5] | – | – | – | – | 76.5 | 71.6 | 91.5 | 85.4 | 33.7
[6] | – | – | – | – | 4.78 | 2.01 | 88.3 | 27.6 | 2.39
[7] | – | – | – | – | 52.6 | 3.48 | 95.9 | 65 | 16.3
[8] | – | – | – | – | 3.95 | 6.11 | 56.7 | 15.4 | 6.78

Conditions | area under dose-response curve
[9] | 0.782
[10] | 0.155
[11] | 0.0519
[12] | 0.956
[13] | 0.131
[14] | 0.0848
[15] | 0.257
[16] | < 0.0301
[17] | 0.135
[18] | 0.956
[19] | 0.0872
[20] | 0.0474
[21] | 0.0673
[22] | < 0.0301

CN(C)CCNC(=O)c1cccn2c(=O)c3cc4ccccc4cc3nc12 [Bmh-21]
cell viability [%], [1]
Conditions | 0.001 µM | 0.01 µM | 0.1 µM | 1 µM | 10 µM
co-treatment: AZD3965 100 nM | 97.56 | 95.3 | 101 | 91.9 | 48.8
co-treatment: DMSO vehicle | 101.2 | 98.3 | 102 | 98.4 | 74.2
co-treatment: GSK2194069 100 nM | 98.9 | 102 | 101 | 94.5 | 66
co-treatment: pictilisib 100 nM | 94.2 | 100.6 | 104 | 85.7 | 73.8

Conditions | area under dose-response curve, co-treatment: AZD3965 100 nM | area under dose-response curve, co-treatment: DMSO vehicle | area under dose-response curve, co-treatment: GSK2194069 100 nM | cell viability, 1 nM [%] | cell viability, 10 nM [%] | cell viability, 100 nM [%] | cell viability, 1000 nM [%] | cell viability, 10000 nM [%]
[2] | 0.0645 | 0.0352 | 0.0524 | – | – | – | – | –
[3] | – | – | – | 94.4 | 90.3 | 88.3 | 12.1 | 3.46
[4] | – | – | – | 87.4 | 96.6 | 84.1 | 19.7 | 1.27
[5] | – | – | – | 81.8 | 74.6 | 79.8 | 88.3 | < 0
[6] | – | – | – | 35.6 | 94.1 | 79.9 | 1.33 | 0.265
[7] | – | – | – | 59.2 | 82.6 | 92.7 | 14.1 | 4.95
[8] | – | – | – | 63 | 90.4 | 69.9 | 3.68 | 3.45

Conditions | area under dose-response curve
[9] | 0.351
[10] | 0.36
[11] | 0.338
[12] | 0.372
[13] | 0.254
[14] | 0.0874
[15] | 0.263
[16] | 0.233
[17] | 0.318
[18] | 0.396
[19] | 0.386
[20] | 0.121
[21] | 0.368
[22] | 0.199
[23] | 0.31
